Data taken from publication PMC3088499 (Journal of medicinal chemistry, 2008).
“Also recorded” adds a separate entry of the source. Structures can show the parent of a compound that is named as a salt. Where two headings read alike, the source gives them in different places.

Assays:
[1] = target: T1, 5-HT2A receptor F340^6.52L mutant (Rattus norvegicus, UniProt P14842, F340L); test: [3H]ketanserin binding at F340L mutant 5-HT2A receptor; conditions: F340L vs wild type 5-HT2A
[2] = target: NET (Homo sapiens, UniProt P23975); test: [3H]nisoxitine binding, NET
[3] = target: 5-HT2A sites; conditions: read-out: Ki, 5-HT2A receptor affinity; [3H]Ketanserin-labeled 5-HT2A sites; ref [13]; cited from earlier work
[4] = target: T1, 5-HT2A receptor F340^6.52L mutant; conditions: F340L vs wild type 5-HT2A, fold decrease; ref [41]; cited from earlier work
[5] = system: 5-HT2A T134^2.64A mutant; conditions: ref [107]; cited from earlier work
[6] = system: 5-HT2A M132^2.62L mutant; conditions: ref [107]; cited from earlier work
[7] = system: 5-HT2A W200^4.50A mutant; conditions: ref [44]; cited from earlier work
[8] = system: 5-HT2A D172^3.49N mutant; conditions: ref [105]; cited from earlier work
[9] = system: 5-HT2A S159^3.36A mutant; conditions: ref [45]; cited from earlier work
[10] = system: 5-HT2A F125^2.55L mutant; conditions: cited from earlier work
[11] = system: 5-HT2A S159^3.36C mutant; conditions: ref [45]; cited from earlier work
[12] = system: 5-HT2A W367^7.40L mutant; conditions: ref [44]; cited from earlier work
[13] = system: 5-HT2A F340^6.52L mutant; conditions: cited from earlier work
[14] = system: 5-HT2A F125^2.55S mutant; conditions: ref [107]; cited from earlier work

T1 sequence (P14842 whole entry F340L): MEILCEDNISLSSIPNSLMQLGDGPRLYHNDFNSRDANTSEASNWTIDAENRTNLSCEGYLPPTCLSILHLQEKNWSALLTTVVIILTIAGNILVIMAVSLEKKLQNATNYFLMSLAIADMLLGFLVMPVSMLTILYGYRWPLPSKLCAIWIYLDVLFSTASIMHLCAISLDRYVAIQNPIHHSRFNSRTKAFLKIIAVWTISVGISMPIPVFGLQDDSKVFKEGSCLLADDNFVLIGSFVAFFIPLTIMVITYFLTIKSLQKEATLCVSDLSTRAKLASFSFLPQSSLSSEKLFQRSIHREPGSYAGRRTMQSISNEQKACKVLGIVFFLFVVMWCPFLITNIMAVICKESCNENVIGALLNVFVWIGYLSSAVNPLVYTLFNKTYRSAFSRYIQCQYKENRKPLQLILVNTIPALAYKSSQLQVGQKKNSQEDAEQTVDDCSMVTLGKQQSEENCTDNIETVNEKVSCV
Chain of NET (P23975 whole entry): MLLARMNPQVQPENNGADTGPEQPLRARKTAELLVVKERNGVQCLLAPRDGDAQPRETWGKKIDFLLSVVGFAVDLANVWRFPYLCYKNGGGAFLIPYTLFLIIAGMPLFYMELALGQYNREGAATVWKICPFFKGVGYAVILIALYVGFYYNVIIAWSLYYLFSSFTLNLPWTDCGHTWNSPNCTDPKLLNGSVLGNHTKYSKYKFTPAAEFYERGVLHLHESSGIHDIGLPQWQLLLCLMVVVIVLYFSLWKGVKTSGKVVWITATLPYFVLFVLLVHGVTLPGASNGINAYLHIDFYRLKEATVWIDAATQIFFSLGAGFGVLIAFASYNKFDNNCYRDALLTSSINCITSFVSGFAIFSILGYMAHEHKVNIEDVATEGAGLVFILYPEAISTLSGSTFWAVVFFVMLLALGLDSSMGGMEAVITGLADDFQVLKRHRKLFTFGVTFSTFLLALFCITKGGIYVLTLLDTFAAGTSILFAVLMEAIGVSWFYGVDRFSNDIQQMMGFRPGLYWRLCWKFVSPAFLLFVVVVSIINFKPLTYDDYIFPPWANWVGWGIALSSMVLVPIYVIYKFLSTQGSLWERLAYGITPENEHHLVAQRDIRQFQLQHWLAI

Compound: NCC1c2ccccc2Cc2ccccc21 [Compound 1a, 9-aminomethyl-9,10-dihydroanthracene]
- decrease in affinity at F340L mutant compared to wild type receptor [1]: 3 fold

Compound: NCC1c2ccccc2Cc2cc(Br)ccc21 (stereo not shown) [Compound 1b, 3-Bromo-9-aminomethyl-9,10-dihydroanthracene hydrochloride]
- decrease in affinity at F340L mutant compared to wild type receptor [1]: no change in affinity

Compound: CCCCCCc1ccc2c(c1)Cc1ccccc1C2CN (stereo not shown) [Compound 1d, 3-n-Hexyl-9-aminomethyl-9,10-dihydroanthracene fumarate]
- selectivity for the 5-HT2A receptor over the norepinephrine transporter [2]: 120 fold

Compound: COc1cc(CC(C)N)c(OC)cc1O (stereo not shown) [Compound 2g]
- Ki [3]: > 50 µM

Compound: COc1cc(CC(C)N)c(OC)cc1I (stereo not shown) [DOI, 2,5-dimethoxy-4-iodoamphetamine]
- effect of F340L mutation on affinity [4]: approximately 14,000 fold

Compound: O=C(c1ccc(F)cc1)C1CCN(CCn2c(=O)[nH]c3ccccc3c2=O)CC1 [ketanserin]
- Effect on ketanserin binding affinity [5]: no effect
- Effect on ketanserin binding affinity [6]: no effect
- Effect on ketanserin binding affinity [7]: no effect
- effect of F340L mutation on affinity [4]: little effect
- Effect on ketanserin binding affinity [8]: no effect
- Effect on ketanserin binding affinity [9]: no effect
- Effect on ketanserin binding affinity ([10]; ref [44]): no effect
- Effect on ketanserin binding affinity ([10]; ref [104]): no effect
- Effect on ketanserin binding affinity ([10]; ref [106]): no effect
- Effect on ketanserin binding affinity [11]: no effect
- Effect on ketanserin binding affinity [12]: abolished; also recorded: no detectable binding
- Effect on ketanserin binding affinity ([13]; ref [104]): no effect
- Effect on ketanserin binding affinity ([13]; ref [107]): no effect
- Effect on ketanserin binding affinity [14]: no effect
